This is an account of results in PMC9851200, “Multiparameter phenotypic screening for endogenous TFEB and TFE3 translocation identifies novel chemical series modulating lysosome function” (Autophagy, 2022).

Structures are written as SMILES.

The target of assay [1] is kinases (KINOMEscan panel) (Homo sapiens, UniProt O75582). It is filed as binding. Particulars: NEW KINOMEscan.
The target in assay [2] is kinases (KINOMEscan panel) (Homo sapiens, UniProt O95382). The format is binding.
Assay [3] addresses kinases (KINOMEscan panel) (Homo sapiens, UniProt P08581). It is filed as binding.
Assay [4] addresses kinases (KINOMEscan panel) (Homo sapiens, UniProt P0C264). The format is binding.
Assay [5] has as its target kinases (KINOMEscan panel) (Homo sapiens, UniProt P36507). It is filed as binding.
The target in assay [6] is kinases (KINOMEscan panel) (Homo sapiens, UniProt P45983). It is filed as binding.
Assay [7] addresses kinases (KINOMEscan panel) (Homo sapiens, UniProt P45985). It is filed as binding.
Assay [8] concerns the target kinases (KINOMEscan panel) (Homo sapiens, UniProt P46734). It is filed as binding.
Assay [9] concerns the target kinases (KINOMEscan panel) (Homo sapiens, UniProt P52564). The format is binding.
For assay [10], the target named is kinases (KINOMEscan panel) (Homo sapiens, UniProt Q02763). The format is binding.
Assay [11] deals with kinases (KINOMEscan panel) (Homo sapiens, UniProt Q12852). It is filed as binding.
For assay [12], the target named is kinases (KINOMEscan panel) (Homo sapiens, UniProt Q13153). It is filed as binding.
In assay [13] the target is kinases (KINOMEscan panel) (Homo sapiens, UniProt Q13164). The format is binding.
For assay [14], the target named is kinases (KINOMEscan panel) (Homo sapiens, UniProt Q15418). The format is binding.
In assay [15] the target is kinases (KINOMEscan panel) (Homo sapiens, UniProt Q86UX6). The format is binding.
The target of assay [16] is kinases (KINOMEscan panel) (Homo sapiens, UniProt Q8IY84). It is filed as binding.
In assay [17] the target is kinases (KINOMEscan panel) (Homo sapiens, UniProt Q8NEB9). It is filed as binding.
Assay [18] addresses kinases (KINOMEscan panel) (Homo sapiens, UniProt Q99683). It is filed as binding.
The target of assay [19] is kinases (KINOMEscan panel) (Homo sapiens, UniProt Q9H2G2). The format is binding.
The target of assay [20] is kinases (KINOMEscan panel) (Homo sapiens, UniProt Q9NSY1). The format is binding.
Assay [21] concerns the target kinases (KINOMEscan panel) (Homo sapiens, UniProt Q9NYL2). The format is binding.
Assay [22] addresses kinases (KINOMEscan panel) (Homo sapiens, UniProt Q9P289). It is filed as binding.
The target of assay [23] is kinases (KINOMEscan panel) (Homo sapiens, UniProt Q9UEE5). It is filed as binding.
Assay [24] deals with kinases (KINOMEscan panel) (Homo sapiens, UniProt Q9Y2H1). The format is binding.
Assay [25] deals with kinases (KINOMEscan panel) (Homo sapiens, UniProt Q9Y2K2). It is filed as binding.
Another assay relates to TFEB. The assay is described as follows: Cellular fractionation and western blot of nuclear/cytoplasmic TFEB. It is filed as cell-based. Particulars: nuclear/cytoplasmic TFEB ratio, western blot. The procedure: Cells were washed with cold PBS (ThermoFisher Scientific/Gibco, 10,010–015) and lysed in RIPA buffer (0.5% Triton X-100, 10 mM Tris/HCl, pH 8.0, 1 mM EDTA (Sigma Aldrich, E6511), 0.5 mM EGTA (Sigma Aldrich, E3889), 0.1% sodium dodecyl sulfate [SDS], 0.02% sodium deoxycholate (Sigma Aldrich, D6750), and 140 mM NaCl (Sigma Aldrich, S9625) supplemented with protease-inhibitor cocktail (Sigma Aldrich/Roche, 4,693,132,001) and phosphatase inhibitors (Roche/Sigma Aldrich, 4,906,845,001) for 30 min at 4°C. The lysates were centrifuged at 13,000 g for 15 min and the supernatants collected. Protein concentration was quantified using BCA reagent (Thermofisher Scientific, 23,252) and 4× SDS Laemmli buffer was added. The samples were boiled at 95°C for 5 min before SDS-polyacrylamide gel electrophoresis (SDS-PAGE) using Mini-PROTEAN® Precast Gels (Bio-Rad, 4,568,094). Ten micrograms of protein per lane were separated by SDS/PAGE and transferred to a PVDF membrane using the Trans-Blot Turbo Transfer System (Bio-Rad, Hercules, CA, USA). […] Nuclear and cytoplasmic fractions were assessed with a LMNA/lamin A/C antibody (Santa Cruz Biotechnology, sc-7292) or GAPDH antibody (Abcam, ab9484), respectively.
Figure S5. […] (C) The levels of nuclear/cytoplasmic TFEB were quantified and presented as a ratio. […]

Chain of kinases (KINOMEscan panel) (Homo sapiens, UniProt O75582) (O75582 whole entry): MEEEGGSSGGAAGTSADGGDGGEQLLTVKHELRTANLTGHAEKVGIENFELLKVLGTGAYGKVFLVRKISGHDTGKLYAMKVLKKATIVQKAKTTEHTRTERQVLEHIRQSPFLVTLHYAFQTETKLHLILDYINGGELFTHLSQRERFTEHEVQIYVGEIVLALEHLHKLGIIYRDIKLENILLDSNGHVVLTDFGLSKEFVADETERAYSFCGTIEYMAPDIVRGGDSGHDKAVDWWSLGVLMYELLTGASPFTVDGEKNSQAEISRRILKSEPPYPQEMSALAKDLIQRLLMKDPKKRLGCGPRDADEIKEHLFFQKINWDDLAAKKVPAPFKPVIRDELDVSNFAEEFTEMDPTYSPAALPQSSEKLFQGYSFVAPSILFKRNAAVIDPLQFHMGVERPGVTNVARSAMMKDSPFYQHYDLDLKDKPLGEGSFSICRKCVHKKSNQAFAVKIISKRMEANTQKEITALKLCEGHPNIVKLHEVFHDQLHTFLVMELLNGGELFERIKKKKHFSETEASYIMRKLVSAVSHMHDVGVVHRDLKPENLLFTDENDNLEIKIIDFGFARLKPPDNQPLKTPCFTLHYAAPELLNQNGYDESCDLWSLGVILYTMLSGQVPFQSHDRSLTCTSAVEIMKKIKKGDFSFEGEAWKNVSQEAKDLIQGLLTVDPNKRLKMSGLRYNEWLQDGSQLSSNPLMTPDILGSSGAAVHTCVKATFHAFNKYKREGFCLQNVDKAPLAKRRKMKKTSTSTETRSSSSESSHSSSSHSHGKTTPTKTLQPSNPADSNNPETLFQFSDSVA
Chain of kinases (KINOMEscan panel) (Homo sapiens, UniProt Q15418) (Q15418 whole entry): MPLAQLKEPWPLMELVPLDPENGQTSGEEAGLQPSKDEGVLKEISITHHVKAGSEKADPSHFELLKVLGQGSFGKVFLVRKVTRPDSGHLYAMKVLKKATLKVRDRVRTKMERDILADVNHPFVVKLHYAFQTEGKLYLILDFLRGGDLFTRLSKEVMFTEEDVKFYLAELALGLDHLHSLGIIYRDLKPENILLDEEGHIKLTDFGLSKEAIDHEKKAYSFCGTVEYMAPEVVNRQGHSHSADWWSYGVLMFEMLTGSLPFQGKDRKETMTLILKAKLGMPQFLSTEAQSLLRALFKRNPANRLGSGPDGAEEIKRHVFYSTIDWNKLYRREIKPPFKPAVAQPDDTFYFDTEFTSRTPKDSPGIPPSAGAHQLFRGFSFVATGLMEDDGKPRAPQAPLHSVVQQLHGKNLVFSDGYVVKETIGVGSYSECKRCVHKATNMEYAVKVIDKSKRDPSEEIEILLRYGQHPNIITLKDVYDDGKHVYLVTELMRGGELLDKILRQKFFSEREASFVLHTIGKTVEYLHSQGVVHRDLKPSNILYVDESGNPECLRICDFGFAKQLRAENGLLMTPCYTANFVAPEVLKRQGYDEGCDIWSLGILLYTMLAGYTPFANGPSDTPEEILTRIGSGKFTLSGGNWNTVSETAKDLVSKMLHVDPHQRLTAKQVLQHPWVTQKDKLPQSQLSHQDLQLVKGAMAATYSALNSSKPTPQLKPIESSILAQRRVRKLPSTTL
Chain of kinases (KINOMEscan panel) (Homo sapiens, UniProt O95382) (O95382 whole entry): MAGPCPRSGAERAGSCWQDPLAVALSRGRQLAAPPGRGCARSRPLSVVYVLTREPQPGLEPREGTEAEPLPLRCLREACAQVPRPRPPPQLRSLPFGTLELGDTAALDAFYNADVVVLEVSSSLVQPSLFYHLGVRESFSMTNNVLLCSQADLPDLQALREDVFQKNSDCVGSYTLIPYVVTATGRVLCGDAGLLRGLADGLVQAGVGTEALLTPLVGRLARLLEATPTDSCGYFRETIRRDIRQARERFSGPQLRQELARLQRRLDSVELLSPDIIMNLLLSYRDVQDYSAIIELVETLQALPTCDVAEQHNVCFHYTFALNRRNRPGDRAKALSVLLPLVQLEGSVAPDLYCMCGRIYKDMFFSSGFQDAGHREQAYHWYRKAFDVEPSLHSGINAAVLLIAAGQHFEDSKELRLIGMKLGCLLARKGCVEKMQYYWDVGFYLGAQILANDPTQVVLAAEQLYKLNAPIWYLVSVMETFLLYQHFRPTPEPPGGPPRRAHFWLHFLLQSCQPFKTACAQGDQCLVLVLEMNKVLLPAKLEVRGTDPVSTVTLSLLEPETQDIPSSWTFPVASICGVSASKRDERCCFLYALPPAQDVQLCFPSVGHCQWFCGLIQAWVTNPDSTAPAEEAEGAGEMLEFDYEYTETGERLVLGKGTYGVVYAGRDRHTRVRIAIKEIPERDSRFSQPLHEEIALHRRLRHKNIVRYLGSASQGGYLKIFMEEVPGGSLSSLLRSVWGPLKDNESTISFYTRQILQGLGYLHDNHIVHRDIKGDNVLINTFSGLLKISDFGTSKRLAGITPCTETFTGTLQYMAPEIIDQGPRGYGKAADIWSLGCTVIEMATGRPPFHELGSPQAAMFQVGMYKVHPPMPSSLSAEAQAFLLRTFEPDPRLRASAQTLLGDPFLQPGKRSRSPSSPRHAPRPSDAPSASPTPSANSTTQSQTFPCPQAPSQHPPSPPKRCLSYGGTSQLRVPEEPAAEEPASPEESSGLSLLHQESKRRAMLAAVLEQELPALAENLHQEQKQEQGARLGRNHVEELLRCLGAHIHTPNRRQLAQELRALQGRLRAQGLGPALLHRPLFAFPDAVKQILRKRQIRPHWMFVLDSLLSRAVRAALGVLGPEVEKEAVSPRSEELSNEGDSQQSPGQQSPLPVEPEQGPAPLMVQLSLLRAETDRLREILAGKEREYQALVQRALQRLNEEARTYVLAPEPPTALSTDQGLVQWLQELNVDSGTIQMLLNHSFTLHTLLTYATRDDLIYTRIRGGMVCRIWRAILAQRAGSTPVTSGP
Chain of kinases (KINOMEscan panel) (Homo sapiens, UniProt Q8IY84) (Q8IY84 whole entry): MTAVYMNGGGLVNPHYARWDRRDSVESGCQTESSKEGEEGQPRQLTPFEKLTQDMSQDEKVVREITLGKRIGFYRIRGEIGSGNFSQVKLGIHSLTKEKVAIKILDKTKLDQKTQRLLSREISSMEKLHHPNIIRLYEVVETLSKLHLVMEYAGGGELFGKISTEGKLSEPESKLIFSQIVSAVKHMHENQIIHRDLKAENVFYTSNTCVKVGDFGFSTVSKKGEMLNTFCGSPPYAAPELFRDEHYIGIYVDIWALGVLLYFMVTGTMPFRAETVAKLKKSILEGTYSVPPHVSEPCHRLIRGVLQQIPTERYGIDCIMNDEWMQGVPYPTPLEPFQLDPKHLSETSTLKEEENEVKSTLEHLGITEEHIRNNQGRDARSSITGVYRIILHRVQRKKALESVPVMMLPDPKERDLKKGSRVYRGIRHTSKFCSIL
Chain of kinases (KINOMEscan panel) (Homo sapiens, UniProt Q9P289) (Q9P289 whole entry): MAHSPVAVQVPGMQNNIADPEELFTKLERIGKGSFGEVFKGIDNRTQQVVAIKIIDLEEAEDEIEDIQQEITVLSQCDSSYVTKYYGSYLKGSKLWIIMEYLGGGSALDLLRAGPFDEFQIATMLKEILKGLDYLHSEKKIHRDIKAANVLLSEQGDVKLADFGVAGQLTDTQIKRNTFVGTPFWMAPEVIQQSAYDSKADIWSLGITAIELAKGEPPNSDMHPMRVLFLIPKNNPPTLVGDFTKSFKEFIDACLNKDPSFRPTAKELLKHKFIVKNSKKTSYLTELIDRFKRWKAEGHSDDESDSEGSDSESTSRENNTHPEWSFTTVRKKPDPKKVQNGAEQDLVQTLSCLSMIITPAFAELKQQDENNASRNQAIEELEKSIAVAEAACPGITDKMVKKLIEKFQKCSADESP
Chain of kinases (KINOMEscan panel) (Homo sapiens, UniProt Q9Y2K2) (Q9Y2K2 whole entry): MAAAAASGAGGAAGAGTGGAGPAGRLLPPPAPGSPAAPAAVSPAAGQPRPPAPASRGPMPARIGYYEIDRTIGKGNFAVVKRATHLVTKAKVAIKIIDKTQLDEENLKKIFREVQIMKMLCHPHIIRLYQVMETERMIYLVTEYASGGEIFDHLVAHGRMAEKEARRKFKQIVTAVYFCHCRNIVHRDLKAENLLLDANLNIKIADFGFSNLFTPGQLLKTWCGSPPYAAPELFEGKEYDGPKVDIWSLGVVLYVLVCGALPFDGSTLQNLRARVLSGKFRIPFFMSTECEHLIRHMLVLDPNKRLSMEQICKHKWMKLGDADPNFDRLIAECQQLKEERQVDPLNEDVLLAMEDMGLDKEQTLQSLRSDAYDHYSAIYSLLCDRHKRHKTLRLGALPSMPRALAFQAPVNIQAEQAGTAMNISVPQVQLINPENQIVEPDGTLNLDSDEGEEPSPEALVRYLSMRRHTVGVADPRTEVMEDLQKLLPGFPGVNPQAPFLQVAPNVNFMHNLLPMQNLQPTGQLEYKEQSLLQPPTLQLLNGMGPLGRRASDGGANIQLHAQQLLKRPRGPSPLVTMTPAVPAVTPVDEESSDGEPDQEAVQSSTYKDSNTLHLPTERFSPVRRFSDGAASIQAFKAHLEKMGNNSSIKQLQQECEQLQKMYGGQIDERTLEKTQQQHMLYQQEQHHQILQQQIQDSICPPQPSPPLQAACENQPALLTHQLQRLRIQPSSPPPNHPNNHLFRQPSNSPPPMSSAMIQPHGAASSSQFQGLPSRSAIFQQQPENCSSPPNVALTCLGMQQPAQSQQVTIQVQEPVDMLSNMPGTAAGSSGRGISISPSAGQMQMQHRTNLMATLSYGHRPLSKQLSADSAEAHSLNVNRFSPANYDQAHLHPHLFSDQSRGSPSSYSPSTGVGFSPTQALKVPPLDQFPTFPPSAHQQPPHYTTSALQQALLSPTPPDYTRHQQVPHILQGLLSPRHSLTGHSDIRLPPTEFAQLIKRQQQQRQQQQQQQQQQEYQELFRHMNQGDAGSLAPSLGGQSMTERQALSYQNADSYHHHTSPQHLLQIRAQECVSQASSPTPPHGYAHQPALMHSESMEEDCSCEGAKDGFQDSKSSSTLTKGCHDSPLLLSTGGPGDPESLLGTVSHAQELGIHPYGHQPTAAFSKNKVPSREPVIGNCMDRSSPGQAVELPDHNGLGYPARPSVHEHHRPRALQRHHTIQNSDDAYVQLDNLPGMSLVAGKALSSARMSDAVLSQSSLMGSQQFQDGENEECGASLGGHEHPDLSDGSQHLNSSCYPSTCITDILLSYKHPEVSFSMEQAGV

`Cc1cccc(-c2nc(N(C)c3ccc4ncsc4c3)c3ccccc3n2)n1` [NK-161]: the “KINOMEscan RPS6KA5(Kin.Dom.1-N-terminal)” value in [1] was 21. The “KINOMEscan RPS6KA5(Kin.Dom.2-C-terminal)” value in assay [1] (kinase RPS6KA5(Kin.Dom.2-C-terminal)) is listed as 0. For the same molecule, in assay [2], the “KINOMEscan MAP3K6/ASK2” value worked out at 0. The “KINOMEscan SLTM/MET” value in assay [3] came to 11. Also, the “KINOMEscan SBK3/SgK110” value in assay [4] is recorded as 0. Besides, the “KINOMEscan MAP2K2/MEK2” value in [5] is 27. Further, in assay [6], the “KINOMEscan MAPK8/JNK1” value was 0. Moreover, the “KINOMEscan MAP2K4/MEK4” value in assay [7] is given as 0. In addition, the “KINOMEscan MAP2K3/MEK3” value in assay [8] was found to be 0. In addition, in [9], the “KINOMEscan MAP2K6/MEK6” value amounted to 12. Besides, the “KINOMEscan TEK/TIE2” value in assay [10] is listed as 13. In [11], the “KINOMEscan MAP3K12/DLK” value is on record as 0. Besides, the “KINOMEscan PKN1/PAK1” value in assay [12] is given as 0. Besides, in [13], the “KINOMEscan MAPK7/ERK5” value turned out to be 0. In addition, in assay [14], the “KINOMEscan RPS6KA1/RSK1(Kin.Dom.1-N-terminal)” value amounted to 9 and the “KINOMEscan RPS6KA1/RSK1(Kin.Dom.2-C-terminal)” value amounted to 34. The “KINOMEscan STK32C/YANK3” value in [15] came to 18. Further, the “KINOMEscan NIM1K/NIM1” value in [16] was found to be 12. The “KINOMEscan PIK3C3/VPS34” value in assay [17] is on record as 0. Further, in assay [18], the “KINOMEscan MAP3K5/ASK1” value was 0. In addition, in assay [19], the “KINOMEscan FYN/SLK” value turned out to be 4. The “KINOMEscan BMP2K/BIKE” value in [20] is given as 12. Moreover, in assay [21], the “KINOMEscan MAP3K20/ZAK” value is given as 0. Besides, in assay [22], the “KINOMEscan STK26/MST4” value came to 5. Besides, in assay [23], the “KINOMEscan STK17A/DRAK1” value turned out to be 0. In addition, in assay [24], the “KINOMEscan STK38L/NDR2” value was 0. For the same molecule, the “KINOMEscan SIK3/QSK” value in assay [25] was determined as 0.
In the case of `Cc1cccc(-c2nc(Nc3ccc4ncsc4c3)c3ccccc3n2)n1` [NK140], the “Translocation of TFEB to the nucleus, cellular fractionation (in words)” value in the assay with TFEB is “increased translocation of TFEB to the nucleus”.
